Data taken from ChEMBL document CHEMBL5370531, “Design, synthesis and pharmacological evaluation of 2,3-dihydrobenzofuran IRAK4 inhibitors for the treatment of diffuse large B-cell lymphoma” (Eur J Med Chem, 2023).
Activity calls are given as the source filed them. The rule behind the calls is not given here.

How the values were obtained:
[1] = test system: OCI-Ly10; test: Cytotoxicity against human OCILY10 cells assessed as inhibition of cell proliferation incubated for 72 hrs by CCK-8 assay; format: functional, cell-based; conditions: OCI-Ly10, 72 h
[2] = test system: U2932; test: Cytotoxicity against human U2932 cells assessed as inhibition of cell proliferation incubated for 72 hrs by CCK-8 assay; format: functional, cell-based; conditions: U2932, 72 h
[3] = Cytotoxicity against human GM00637 cells assessed as inhibition of cell proliferation incubated for 72 hrs by CCK-8 assay; format: toxicity, cell-based
[4] = biological target: Vascular endothelial growth factor receptor 2 (Homo sapiens) (UniProt P35968); test: Inhibition of VEGFR2 (unknown origin) at 100 nM incubated for 1 hr in presence of ATP by ELISA analysis
Sequence of Vascular endothelial growth factor receptor 2 (Homo sapiens) (P35968 whole entry): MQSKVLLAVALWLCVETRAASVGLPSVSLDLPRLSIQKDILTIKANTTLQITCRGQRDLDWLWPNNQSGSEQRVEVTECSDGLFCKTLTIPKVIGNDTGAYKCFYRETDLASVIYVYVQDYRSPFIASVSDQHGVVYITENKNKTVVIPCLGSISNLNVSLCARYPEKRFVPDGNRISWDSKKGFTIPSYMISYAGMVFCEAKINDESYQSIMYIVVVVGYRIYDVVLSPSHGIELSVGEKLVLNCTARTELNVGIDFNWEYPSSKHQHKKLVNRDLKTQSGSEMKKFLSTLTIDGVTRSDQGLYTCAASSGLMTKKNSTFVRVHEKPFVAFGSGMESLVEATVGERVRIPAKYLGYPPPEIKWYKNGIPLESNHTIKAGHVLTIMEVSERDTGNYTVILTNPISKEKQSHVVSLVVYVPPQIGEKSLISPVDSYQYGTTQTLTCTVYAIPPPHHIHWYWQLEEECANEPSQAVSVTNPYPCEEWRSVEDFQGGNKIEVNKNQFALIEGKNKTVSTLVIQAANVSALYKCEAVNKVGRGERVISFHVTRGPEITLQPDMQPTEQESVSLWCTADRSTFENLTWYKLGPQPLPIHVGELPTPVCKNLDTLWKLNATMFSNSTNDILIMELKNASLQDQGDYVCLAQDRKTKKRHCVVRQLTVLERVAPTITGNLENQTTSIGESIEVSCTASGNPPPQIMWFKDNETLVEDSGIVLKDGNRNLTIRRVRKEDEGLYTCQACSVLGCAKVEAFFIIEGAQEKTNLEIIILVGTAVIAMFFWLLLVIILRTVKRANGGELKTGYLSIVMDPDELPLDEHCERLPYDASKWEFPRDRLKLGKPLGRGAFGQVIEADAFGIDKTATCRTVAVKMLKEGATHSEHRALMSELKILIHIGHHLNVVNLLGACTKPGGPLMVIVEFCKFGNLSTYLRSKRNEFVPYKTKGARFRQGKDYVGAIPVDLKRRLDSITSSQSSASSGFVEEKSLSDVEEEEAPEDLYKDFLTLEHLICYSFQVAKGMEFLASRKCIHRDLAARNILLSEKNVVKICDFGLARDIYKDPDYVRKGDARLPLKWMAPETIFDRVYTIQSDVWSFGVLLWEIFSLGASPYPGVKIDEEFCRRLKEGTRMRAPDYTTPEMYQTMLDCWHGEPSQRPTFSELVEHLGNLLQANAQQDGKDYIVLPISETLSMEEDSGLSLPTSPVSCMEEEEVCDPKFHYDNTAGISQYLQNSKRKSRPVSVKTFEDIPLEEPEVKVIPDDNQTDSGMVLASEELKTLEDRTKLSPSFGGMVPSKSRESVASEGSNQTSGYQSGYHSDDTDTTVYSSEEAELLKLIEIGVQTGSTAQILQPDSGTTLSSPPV

[5] = biological target: Fibroblast growth factor receptor 4 (Homo sapiens) (UniProt P22455); test: Inhibition of FGFR4 (unknown origin) at 100 nM incubated for 1 hr in presence of ATP by ELISA analysis
Sequence of Fibroblast growth factor receptor 4 (Homo sapiens) (P22455 22-802 limits assumed): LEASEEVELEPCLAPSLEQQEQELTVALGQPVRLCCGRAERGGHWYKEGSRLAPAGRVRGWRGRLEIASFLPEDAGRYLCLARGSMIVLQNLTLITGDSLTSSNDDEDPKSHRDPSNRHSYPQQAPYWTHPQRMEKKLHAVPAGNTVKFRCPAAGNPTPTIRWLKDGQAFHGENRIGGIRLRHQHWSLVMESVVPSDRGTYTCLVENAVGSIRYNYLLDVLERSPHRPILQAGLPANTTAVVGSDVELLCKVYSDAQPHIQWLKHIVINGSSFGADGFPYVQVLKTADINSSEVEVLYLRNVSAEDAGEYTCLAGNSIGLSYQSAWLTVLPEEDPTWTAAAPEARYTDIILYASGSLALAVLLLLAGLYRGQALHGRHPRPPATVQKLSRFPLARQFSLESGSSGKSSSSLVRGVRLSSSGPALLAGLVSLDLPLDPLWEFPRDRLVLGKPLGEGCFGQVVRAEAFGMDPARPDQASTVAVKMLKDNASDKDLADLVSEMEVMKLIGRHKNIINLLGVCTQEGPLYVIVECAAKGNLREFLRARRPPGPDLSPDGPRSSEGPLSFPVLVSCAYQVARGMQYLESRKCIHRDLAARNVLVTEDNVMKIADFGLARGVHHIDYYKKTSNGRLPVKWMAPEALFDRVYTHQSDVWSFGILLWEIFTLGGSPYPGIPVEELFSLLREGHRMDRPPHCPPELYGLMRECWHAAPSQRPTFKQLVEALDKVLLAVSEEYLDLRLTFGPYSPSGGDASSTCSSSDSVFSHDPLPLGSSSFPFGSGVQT

[6] = biological target: Fibroblast growth factor receptor 3 (Homo sapiens) (UniProt P22607); test: Inhibition of FGFR3 (unknown origin) at 100 nM incubated for 1 hr in presence of ATP by ELISA analysis
Sequence of Fibroblast growth factor receptor 3 (Homo sapiens) (P22607 23-806 limits assumed): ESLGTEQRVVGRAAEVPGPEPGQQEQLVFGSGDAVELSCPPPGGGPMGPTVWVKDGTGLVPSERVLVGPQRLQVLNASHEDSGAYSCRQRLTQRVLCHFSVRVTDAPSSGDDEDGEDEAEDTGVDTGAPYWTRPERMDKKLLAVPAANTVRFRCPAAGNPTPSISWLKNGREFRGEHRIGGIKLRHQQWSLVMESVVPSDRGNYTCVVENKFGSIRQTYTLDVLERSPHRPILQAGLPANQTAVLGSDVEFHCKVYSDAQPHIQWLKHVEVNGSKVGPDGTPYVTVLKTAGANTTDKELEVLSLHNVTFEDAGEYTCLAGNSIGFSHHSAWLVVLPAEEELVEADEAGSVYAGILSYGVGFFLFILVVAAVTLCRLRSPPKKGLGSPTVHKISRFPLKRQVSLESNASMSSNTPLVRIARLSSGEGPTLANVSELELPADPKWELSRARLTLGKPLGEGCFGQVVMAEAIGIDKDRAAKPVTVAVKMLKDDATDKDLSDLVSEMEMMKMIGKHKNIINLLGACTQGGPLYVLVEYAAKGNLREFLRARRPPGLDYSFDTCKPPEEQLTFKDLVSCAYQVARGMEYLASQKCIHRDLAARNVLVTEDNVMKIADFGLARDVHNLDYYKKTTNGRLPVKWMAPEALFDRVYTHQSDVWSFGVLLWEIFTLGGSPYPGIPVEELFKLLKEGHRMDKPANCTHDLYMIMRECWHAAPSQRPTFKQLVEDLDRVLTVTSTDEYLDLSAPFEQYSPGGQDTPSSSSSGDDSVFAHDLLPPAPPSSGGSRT

[7] = biological target: Insulin receptor (Homo sapiens) (UniProt P06213); test: Inhibition of IR (unknown origin) at 100 nM incubated for 1 hr in presence of ATP by ELISA analysis
[8] = biological target: Insulin-like growth factor 1 receptor (Homo sapiens) (UniProt P08069); test: Inhibition of IGFR1 (unknown origin) at 100 nM incubated for 1 hr in presence of ATP by ELISA analysis
Sequence of Insulin-like growth factor 1 receptor (Homo sapiens) (P08069 31-736 limits assumed): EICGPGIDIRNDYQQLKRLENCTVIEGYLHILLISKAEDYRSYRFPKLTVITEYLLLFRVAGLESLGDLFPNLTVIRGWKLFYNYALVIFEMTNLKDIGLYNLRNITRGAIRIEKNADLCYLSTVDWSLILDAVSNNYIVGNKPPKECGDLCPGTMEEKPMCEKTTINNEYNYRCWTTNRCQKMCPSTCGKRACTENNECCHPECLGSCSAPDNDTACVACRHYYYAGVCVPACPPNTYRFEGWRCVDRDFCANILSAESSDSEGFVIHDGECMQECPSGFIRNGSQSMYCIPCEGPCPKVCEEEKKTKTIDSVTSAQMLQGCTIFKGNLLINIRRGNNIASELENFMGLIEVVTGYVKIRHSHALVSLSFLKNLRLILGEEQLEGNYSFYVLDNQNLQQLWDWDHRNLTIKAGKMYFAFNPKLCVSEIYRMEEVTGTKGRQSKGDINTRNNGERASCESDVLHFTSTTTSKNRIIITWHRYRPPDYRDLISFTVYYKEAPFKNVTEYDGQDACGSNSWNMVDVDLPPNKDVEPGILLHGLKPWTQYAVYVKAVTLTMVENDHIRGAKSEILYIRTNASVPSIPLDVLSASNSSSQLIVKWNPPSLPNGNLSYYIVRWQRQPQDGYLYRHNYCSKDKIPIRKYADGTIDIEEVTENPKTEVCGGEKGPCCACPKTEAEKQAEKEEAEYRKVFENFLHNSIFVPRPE
Sequence of Insulin-like growth factor 1 receptor (Homo sapiens) (P08069 741-1367 limits assumed): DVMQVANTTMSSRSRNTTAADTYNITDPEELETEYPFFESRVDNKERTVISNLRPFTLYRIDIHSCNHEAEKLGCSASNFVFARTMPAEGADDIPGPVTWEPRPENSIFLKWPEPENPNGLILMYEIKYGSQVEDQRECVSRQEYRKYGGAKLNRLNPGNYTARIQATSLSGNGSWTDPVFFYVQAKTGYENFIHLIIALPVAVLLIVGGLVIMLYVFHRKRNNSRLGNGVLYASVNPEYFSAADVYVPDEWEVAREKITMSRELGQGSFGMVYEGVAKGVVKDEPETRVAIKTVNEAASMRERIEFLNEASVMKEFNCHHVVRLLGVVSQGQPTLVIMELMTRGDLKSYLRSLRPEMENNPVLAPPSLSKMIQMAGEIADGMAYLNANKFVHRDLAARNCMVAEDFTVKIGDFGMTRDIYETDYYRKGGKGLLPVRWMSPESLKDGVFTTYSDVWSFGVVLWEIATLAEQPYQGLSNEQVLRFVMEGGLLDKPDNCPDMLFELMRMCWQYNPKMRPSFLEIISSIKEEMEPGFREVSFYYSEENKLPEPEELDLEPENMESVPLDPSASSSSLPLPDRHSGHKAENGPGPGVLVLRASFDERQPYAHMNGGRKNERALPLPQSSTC

[9] = biological target: Tyrosine-protein kinase BTK (Homo sapiens) (UniProt Q06187); test: Inhibition of BTK (unknown origin) at 100 nM incubated for 1 hr in presence of ATP by ELISA analysis
Sequence of Tyrosine-protein kinase BTK (Homo sapiens) (Q06187 whole entry): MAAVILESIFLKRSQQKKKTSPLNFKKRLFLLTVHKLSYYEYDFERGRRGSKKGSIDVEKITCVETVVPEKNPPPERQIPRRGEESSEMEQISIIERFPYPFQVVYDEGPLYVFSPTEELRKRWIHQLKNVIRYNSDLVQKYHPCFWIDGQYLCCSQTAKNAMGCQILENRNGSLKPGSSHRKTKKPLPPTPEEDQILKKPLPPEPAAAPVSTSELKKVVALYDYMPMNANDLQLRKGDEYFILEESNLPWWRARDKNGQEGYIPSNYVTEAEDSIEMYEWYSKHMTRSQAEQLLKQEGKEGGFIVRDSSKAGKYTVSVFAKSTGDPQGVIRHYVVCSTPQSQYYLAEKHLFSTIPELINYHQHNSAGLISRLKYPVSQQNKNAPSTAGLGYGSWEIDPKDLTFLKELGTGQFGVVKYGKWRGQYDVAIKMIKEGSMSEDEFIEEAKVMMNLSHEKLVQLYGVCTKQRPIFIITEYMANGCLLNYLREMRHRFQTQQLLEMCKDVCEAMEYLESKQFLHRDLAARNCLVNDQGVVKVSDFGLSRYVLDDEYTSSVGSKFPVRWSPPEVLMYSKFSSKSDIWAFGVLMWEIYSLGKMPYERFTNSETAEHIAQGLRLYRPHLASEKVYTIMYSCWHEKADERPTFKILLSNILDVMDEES

[10] = test system: OCI-Ly10; test: Induction of apoptosis in human OCILY10 cells assessed as early apoptotic cells at 0.2 uM incubated for 24 hrs by Annexin V-FITC/PI staining based flow cytometry (reference value: 10 %); format: functional
[11] = test system: OCI-Ly10; test: Induction of apoptosis in human OCILY10 cells assessed as early apoptotic cells at 0.5 uM incubated for 24 hrs by Annexin V-FITC/PI staining based flow cytometry (reference value: 10 %); format: functional
[12] = test system: OCI-Ly10; test: Induction of apoptosis in human OCILY10 cells assessed as early apoptotic cells at 1 uM incubated for 24 hrs by Annexin V-FITC/PI staining based flow cytometry (reference value: 10 %); format: functional
[13] = test system: OCI-Ly10; test: Induction of apoptosis in human OCILY10 cells assessed as late apoptotic cells at 1 uM incubated for 24 hrs by Annexin V-FITC/PI staining based flow cytometry (reference value: 3.71 %); format: functional
[14] = test system: OCI-Ly10; test: Induction of apoptosis in human OCILY10 cells assessed as early apoptotic cells at 0.1 uM incubated for 48 hrs by Annexin V-FITC/PI staining based flow cytometry (reference value: 5.4 %); format: functional
[15] = test system: OCI-Ly10; test: Induction of apoptosis in human OCILY10 cells assessed as late apoptotic cells at 0.5 uM incubated for 48 hrs by Annexin V-FITC/PI staining based flow cytometry (reference value: 3.54 %); format: functional
[16] = test system: OCI-Ly10; test: Induction of apoptosis in human OCILY10 cells at 0.5 uM incubated for 24 hrs by Annexin V-FITC/PI staining based flow cytometry; format: functional
[17] = test system: OCI-Ly10; test: Induction of apoptosis in human OCILY10 cells assessed as upregulation of PARP cleavage at 0.1 to 1 uM incubated for 24 hrs by immunoblotting analysis; format: functional, cell-based; conditions: dose 0.1-1 µM
[18] = test system: OCI-Ly10; test: Synergistic antiproliferative activity against human OCILY10 cells harboring MYD88 L265P assessed as inhibition of cell growth at 100 nM incubated for 72 hrs in presence of BTK inhibitor, ibrutinib at 1.6 nM by CCK-8 assay (reference value: 21.36 %); format: functional
[19] = test system: OCI-Ly10; test: Synergistic antiproliferative activity against human OCILY10 cells harboring MYD88 L265P assessed as inhibition of cell growth at 800 nM incubated for 72 hrs in presence of BTK inhibitor, ibrutinib at 1.6 nM by CCK-8 assay (reference value: 54.76 %); format: functional
[20] = test system: OCI-Ly10; test: Synergistic antiproliferative activity against human OCILY10 cells harboring MYD88 L265P assessed as inhibition of cell growth at 1600 nM incubated for 72 hrs in presence of BTK inhibitor, ibrutinib at 1.6 nM by CCK-8 assay (reference value: 64.69 %); format: functional
[21] = test system: OCI-Ly10; test: Synergistic antiproliferative activity against human OCILY10 cells harboring MYD88 L265P assessed as inhibition of cell growth at 200 nM incubated for 72 hrs in presence of BTK inhibitor, ibrutinib at 3.1 nM by CCK-8 assay (reference value: 26.07 %); format: functional
[22] = test system: OCI-Ly10; test: Synergistic antiproliferative activity against human OCILY10 cells harboring MYD88 L265P assessed as inhibition of cell growth at 400 nM incubated for 72 hrs in presence of BTK inhibitor, ibrutinib at 3.1 nM by CCK-8 assay (reference value: 34.46 %); format: functional
[23] = test system: OCI-Ly10; test: Synergistic antiproliferative activity against human OCILY10 cells harboring MYD88 L265P assessed as inhibition of cell growth at 800 nM incubated for 72 hrs in presence of BTK inhibitor, ibrutinib at 3.1 nM by CCK-8 assay (reference value: 54.76 %); format: functional
[24] = test system: OCI-Ly10; test: Synergistic antiproliferative activity against human OCILY10 cells harboring MYD88 L265P assessed as inhibition of cell growth at 800 nM incubated for 72 hrs in presence of BTK inhibitor, ibrutinib at 6.2 nM by CCK-8 assay (reference value: 54.76 %); format: functional
[25] = test system: OCI-Ly10; test: Synergistic antiproliferative activity against human OCILY10 cells harboring MYD88 L265P assessed as inhibition of cell growth at 100 nM incubated for 72 hrs in presence of BTK inhibitor, ibrutinib at 25 nM by CCK-8 assay (reference value: 21.36 %); format: functional
[26] = test system: OCI-Ly10; test: Synergistic antiproliferative activity against human OCILY10 cells harboring MYD88 L265P assessed as inhibition of cell growth at 200 nM incubated for 72 hrs in presence of BTK inhibitor, ibrutinib at 25 nM by CCK-8 assay (reference value: 26.07 %); format: functional
[27] = test system: OCI-Ly10; test: Synergistic antiproliferative activity against human OCILY10 cells harboring MYD88 L265P assessed as inhibition of cell growth at 400 nM incubated for 72 hrs in presence of BTK inhibitor, ibrutinib at 25 nM by CCK-8 assay (reference value: 34.46 %); format: functional
[28] = test system: OCI-Ly10; test: Synergistic antiproliferative activity against human OCILY10 cells harboring MYD88 L265P assessed as inhibition of cell growth at 800 nM incubated for 72 hrs in presence of BTK inhibitor, ibrutinib at 25 nM by CCK-8 assay (reference value: 54.76 %); format: functional
[29] = test system: OCI-Ly10; test: Induction of apoptosis in human OCILY10 cells harboring MYD88 L265P assessed as early apoptotic cells at 0.2 uM incubated for 48 hrs in presence of BTK inhibitor, ibrutinib by Annexin V-FITC/PI staining based flow cytometry (reference value: 6.76 %); format: functional

In the case of `Cn1cc(-c2cc3c(cc2NC(=O)c2coc(-c4ccnc(N)c4)n2)CC(C)(C)O3)cn1`, the IC50 [1] is reported as 248 nM, the IC50 [2] is reported as 1250 nM and the IC50 at 72 h [3] is reported as 1520 nM. The inhibition [4] was “inactive”, the inhibition [5] was “inactive” and the inhibition [6] was “inactive”. The inhibition [7] was “inactive”, the inhibition [8] was “inactive” and the inhibition [9] was “inactive”. It also gave an Activity [10] of 11.2%, an Activity [11] of 22.8% and an Activity [12] of 36.4%. It also gave an Activity [13] of 33.7%, an Activity [14] of 12.9% and an Activity [15] of 26.8%. For the same molecule, the Activity [16] was 48.3%, the Activity [17] was “Active” and the inhibition at 0.1 µM [18] was 23.7%. The inhibition at 0.8 µM [19] was 58.1%, the inhibition at 1.6 µM [20] was 70.6% and the inhibition at 0.2 µM [21] was 29.5%. It also gave an inhibition at 0.4 µM [22] of 42.3%, an inhibition at 0.8 µM [23] of 64.6% and an inhibition at 0.8 µM [24] of 83.3%. It also gave an inhibition at 0.1 µM [25] of 72.2%, an inhibition at 0.2 µM [26] of 75.4% and an inhibition at 0.4 µM [27] of 83.2%. It also gave an inhibition at 0.8 µM [28] of 88.4% and an Activity [29] of 19.6%.
